Consider two compounds from patent US6949558B2, “Enhancement of taxane-based chemotherapy by a CDK1 antagonist” (Yale University, priority 2001, dated 2005).

Several values for one entry are separate records, joined by “and”; a condition that tells them apart may be missing. Identical values can stand only once.

The test system of one test is MCF-7 xenografts. It counts as in vivo. The conditions noted are these: adriamycin 2 mg/kg or flavopiridol 15 mg/kg alone, i.p. The text has this: Each complete cycle was separated by 2 d without treatment.
This test generates a P value testing the null hypothesis that the survival curves are identical in the overall populations.

Test [1] has as its system p34^cdc2 kinase activity (MPM-2 epitope) in MCF-7 cells. Nature of the test: MPM-2 mitotic phosphoepitope expression (p34^cdc2 kinase activity) in MCF-7 cells. It counts as cell-based, human. The conditions noted are these: adriamycin-induced G2/M arrest. Here is the method: MPM-2 Mitotic Phosphoepitope Expression: For detection of mitotic phosphoproteins (D. D. Vandre et al. (1989) J. Cell Sci. 94: 245-58), MCF-7 cells (1-2×10^5 cells/60 mm dish) were treated with taxol (2 μM), adriamycin (100 nM), 50 or 300 J/m^2 UVB irradiation and cultured for 0, 8, 16, 24 or 36 h at 37° C. Cells were fixed in 70% ethanol, labeled with MPM-2 antibody (6 μg/ml) followed by addition of goat anti-mouse FITC (Boehringer Mannheim) for 1 h at 22° C. in the presence of 5 μg/ml propidium iodide (PI) containing 50 μg/ml RNase A. Samples were analyzed on a FACScan (Becton Dickinson, Mountain View, Calif.), using CellQuest software.
MPM-2 Mitotic Phosphoepitope Expression: For detection of mitotic phosphoproteins (D. D. Vandre et al. (1989) J. Cell Sci. 94: 245-258), MCF-7 cells (1-2×10^5 cells/60 mm dish) were treated with taxol (0.2 μM), or vincristine (100 nM) for increasing time intervals (8-36 h) at 37° C. Cells were fixed in 70% ethanol, labeled with MPM-2 antibody (6 μg/ml; Upstate Biotechnology, Lake Placid, N.Y.) followed by addition of goat anti-mouse FITC (Boehringer Mannheim) for 1 h at 22° C. in the presence of 5 μg/ml propidium iodide containing 50 μg/ml RNAse A. Samples were analyzed on a FACScan (Becton Dickinson, Mountain View, Calif.), using CellQuest software. Data are expressed as %MPM-2 positive cells in the entire population.

The test system of test [2] is survivin expression in MCF-7 cells. Nature of the test: Survivin expression by Western blotting in MCF-7 cells. It counts as cell-based, human. The following applies: 100 nM adriamycin. Here is the method: (§1) Cell Cultures, Proteins and Antibodies: Breast carcinoma MCF-7 and cervical carcinoma HeLa cells (American Type Culture Collection, Manassas, Va.) were maintained in culture according to the manufacturer's specifications. For treatment with genotoxic agents, HeLa or MCF-7 cells were incubated with vehicle (DMSO) or taxol (2 μM, Sigma Chemical Co., St. Louis, Mo.), adriamycin (100 nM, Sigma), cis-platin (3 μM, Sigma) or subjected to ultraviolet B (UVB) irradiation at 50 or 300 J/m^2. In some experiments, HeLa or MCF-7 treated with taxol, adriamycin or UVB as described above were incubated with inhibitors of transcription (actinomycin D, 1 μg/ml) or translation (cycloheximide, 2 mg/ml) before determination of protein expression by Western blotting. […] A replication-deficient adenovirus encoding wild type survivin (pAd-Survivin) or control encoding Green Fluorescence Protein (pAd-GFP) was generated using the pAd-Easy system as described previously (M. Mesri et al. (2001) J. Clin. Invest. 108: 981-90), and propagated in HEK293 cells with purification by CsCl banding. […] Antibodies to p34^cdc2 or bcl-2 were obtained from Pharmingen (San Diego, Calif.) and R&D, respectively. An antibody to β-actin was from Sigma and antibodies to MPM-2 mitotic phosphoproteins was from Upstate Biotechnology (Lake Placid, N.Y.).
(§2) In some experiments, total RNA was extracted from MCF-7 cells at various time intervals after adriamycin treatment, and hybridized with 32 P-labeled survivin cDNA as described previously. Radioactive bands were detected by autoradiography. […] In other experiments, samples were transferred to nylon membranes and analyzed by Western blotting with antibodies to p34^cdc2 (1 μg/ml), survivin (2 μg/ml), or survivinT34* (5 μg/ml).
Background: In western blotting, separated proteins are transferred to a membrane and probed.

Test [3] concerns survivin mRNA in MCF-7 cells. Nature of the test: Northern hybridization of survivin mRNA in MCF-7 cells. It counts as cell-based, human. The following applies: adriamycin-treated MCF-7 cells. As for the experimental part: as §2
For the next test, the system named is MCF-7 cells. The test is described as follows: Apoptosis by DNA content analysis and flow cytometry in MCF-7 cells. It counts as cell-based, human. Here is the method: Cervical carcinoma HeLa (functionally inactivated p53) cells or breast carcinoma MCF-7 (wild type p53) cells were plated at 50-60% confluency in C-6 wells. […]
(§3) After 4, 8, 16, and 32 hours of incubation, without removing taxol from the wells, purvalanol A was added at three increasing concentrations, 1, 10 and 20 uM (FIG. 1). A control was performed with addition of purvalanol A at the 0-h time point.
(§4) The cell populations were harvested at increasing time intervals from the 0-h time point or corresponding to the addition of purvalanol A. Apoptosis was analyzed by DNA content analysis and flow cytometry (DAPI staining).

For test [4], the system named is HeLa cells. Nature of the test: Apoptosis by DNA content analysis and flow cytometry in HeLa cells. It counts as cell-based, human. Background: In flow cytometry, cells or beads pass a laser one at a time.
Test [5] deals with survivin expression in PC3 cells. Nature of the test: Survivin expression by Western blotting in PC3 cells. The conditions noted are these: taxol then Purvalanol A. It counts as cell-based.
Another test has as its system caspase-9. The test is described as follows: Caspase-9 processing by Western blotting in HeLa cells. The following applies: taxol 0.2 μM, Purvalanol A 20 μM or sequential combination, 16 h.
Test [6] has as its system survivin phosphorylation on Thr^34 in HeLa cells. Nature of the test: Survivin phosphorylation on Thr^34 in HeLa cells (immunoprecipitation, Western blotting). It counts as cell-based, human. The following applies: taxol 0.2 μM 16 h then Purvalanol A 20 μM 16 h. As for the experimental part: A. In vitro kinase assay. […] Radioactive bands were detected by autoradiography. […] The immune complexesb were analyzed by Western blotting (WB) with an antibody to Thr^34-phosphorylated survivin (a-survivinT34*, top panel) or with an antibody to survivin (a-survivin, lower panel) followed by chemiluminescence. For all panels, relative molecular weight markers in kDa are shown on the left.
as §2
Luciferase values were normalized to β-galactosidase expression.

Test [7] deals with p34^cdc2 kinase activity (MPM-2 epitope) in HeLa cells. The test is described as follows: MPM-2 mitotic phosphoepitope expression (p34^cdc2 kinase activity) in HeLa cells. It counts as cell-based, human.
Another test has as its system MCF-7 tumors. Nature of the test: Breast cancer xenograft model (Example 8). It counts as in vivo, CB17 SCID/beige mice. The conditions noted are these: taxol alone 2.5 or 5 mg/kg, Purvalanol A alone 20 mg/kg, i.p. Here is the method: Breast Cancer Xenograft Model: All experiments involving animals were approved by the institutional animal cure and use committee. Six- to eight-week old female CB17 SCID/beige mice (Taconic Farms, Germantown, N.Y.) were injected s.c. into the flanks with 2.5×10^6 exponentially growing MCF-7 cells in 250 μl of sterile PBS, pH 7.4. […] Animals were injected i.p. with taxol alone (2.5 or 5 mg/kg), Purvalanol A alone (20 mg/kg) or the sequential combination of taxol-Purvalanol A for two consecutive days each divided by a day with no treatment. For single agent treatment, vehicle was given in place of taxol or Purvalanol A with the same schedule. Each complete cycle was separated by 2 d without treatment. Tumor volume was measured in the three dimensions with a caliper. Animals with tumor burden >3000 mm^3 were sacrificed (Survival).
Statistical Analysis: All in vitro experiments were repeated at least three times. […] The survival curves were compared using the log-rank test. This test generates a P value testing the null hypothesis that the survival curves are identical in the overall populations.

In test [8] the test system is survivin expression in HeLa cells. The test is described as follows: Survivin expression by Western blotting in HeLa cells. It counts as cell-based, human. Here is the method:
as §1, §2
In other experiments, HeLa cells were treated with taxol (0.2 μM) for 16 h followed by the DNA damaging agent adriamycin (100 nM, Sigma) or the nucleoside analog 5-Fluorouracil (500 μM, Sigma) for 8-32 h at 37° C. […] In some experiments, HeLa cells were transfected by lipofectamine with a minimal survivin promoter construct upstream of a luciferase reporter gene (pLuc-cyc1.2), as described (F. Li et al. (1998) Nature 396: 580-584). Cells were treated with taxol (2 μM) or UVB (50 J/m2), and analyzed for changes in luciferase activity at increasing time intervals (12-36 h) in a luminometer. Luciferase values were normalized to β-galactosidase expression. […] The immune complexes were separated by SDS gel electrophoresis and analyzed with antibodies to survivin or a-survivinT34* by Western blotting.

For test [9], the system named is HeLa cells. Nature of the test: Apoptosis by DNA content analysis and flow cytometry in HeLa cells. It counts as cell-based, human. As for the experimental part:
Cervical carcinoma HeLa (functionally inactivated p53) cells or breast carcinoma MCF-7 (wild type p53) cells were plated at 50-60% confluency in C-6 wells. Cells were treated with taxol at 0.2 μM for 0 to 32 hours in complete media.
as §3, §4
The source holds these as a separate data set.

[10] abbreviates: taxol 2 μM, adriamycin 100 nM, cis-platin 3 μM (Example 7).

For the compound `COc1cccc2c1C(=O)c1c(O)c3c(c(O)c1C2=O)C[C@@](O)(C(=O)CO)C[C@@H]3O[C@H]1C[C@H](N)[C@H](O)[C@H](C)O1` [adriamycin, doxorubicin], the “kinetics of tumor growth vs vehicle” value with MCF-7 xenografts is reported as “did not affect the kinetics of tumor growth”. Also, in test [1], the “residual cell population exhibiting MPM-2 expression” value is 20-25%. Further, the survivin expression entry in [2] is “increased survivin expression”. In addition, the “survivin mRNA” value in test [3] is given as “no detectable increase in survivin mRNA”. Also, the apoptosis with MCF-7 cells (adriamycin 100 nM alone, three values given, their conditions not stated) is 2% and 3% and 10%; in the test on MCF-7 cells (setting [10]), “negligible apoptosis”. In addition, the cell cycle arrest entry with MCF-7 cells (setting [10]) is “G2/M arrest”. The “enhancement of taxol-induced cell death” value in the test on MCF-7 cells (taxol then adriamycin 100 nM and 200 nM in place of purvalanol A) is “did not enhance taxol-induced cell death”. In addition, the “enhancement of apoptosis vs single agent treatment” value with HeLa cells [4] (taxol 0.2 μM 16 h then adriamycin 100 nM or 5-Fluorouracil 500 μM) is on record as “did not result in enhanced apoptosis”.

Take `CC(C)[C@H](CO)Nc1nc(Nc2cccc(Cl)c2)c2ncn(C(C)C)c2n1` [Purvalanol A]: the “effect on taxol-induced increase of survivin expression” value in [5] was “reversed”. Besides, the caspase-9 processing result in the test with caspase-9 was “did not result in significant caspase-9 cleavage”. For the same compound, the “phosphorylation of endogenous survivin on Thr^34” value in [6] is “suppressed phosphorylation of endogenous survivin on Thr^34”. The “inhibition of kinase activity (MPM-2 epitope)” value in test [7] (16 h after addition of purvalanol A in taxol-treated cells, cell line not stated) is 70-80%. In addition, the “MPM-2 mitotic phosphoepitope expression” value in test [7] (HeLa, taxol 0.2 μM 16 h then Cdk inhibitor for 16 h (Purvalanol A 10 μM, alsterpaullone 20 μM, flavopiridol 250 nM, olomoucine 400 μM)) is “completely suppressed MPM-2 mitotic phosphoepitope expression”; in test [7] (HeLa, taxol 0.2 μM 16 h then Cdk inhibitor for 32 h), “completely suppressed MPM-2 mitotic phosphoepitope expression”. In test [7] (HeLa, vincristine 100 nM then Purvalanol A 20 μM, earliest time point tested of 8 h), the “p34^cdc2 kinase activity” value was “suppressed p34^cdc2 kinase activity”. Besides, the “efficacy of taxol followed by purvalanol A compared with HeLa cells” value in the test with MCF-7 cells (taxol 0.2 μM then purvalanol A) is given as “nearly identical”. Also, the “synergy with vincristine treatment” value with MCF-7 cells (vincristine 10 nM and 100 nM then purvalanol A 10 uM) is reported as “did not synergize with vincristine treatment”. In addition, in the test with HeLa cells [4] (after 96 h), the “vincristine-induced apoptosis in the presence or the absence of Purvalanol A” value is listed as “indistinguishable”. Also, in the test with HeLa cells [4] (purvalanol A 1, 10, 20 uM alone or followed by 0.2 uM taxol), the “apoptosis, purvalanol A alone or reversed schedule” value is “no apoptosis at all”. Besides, the apoptosis is around 90% in the test on HeLa cells [4] (taxol 0.2 μM then 20 uM purvalanol A, 16 h after purvalanol A addition); “did not result in induction of apoptosis” in the test with HeLa cells [4] (vincristine then Purvalanol A, throughout a 32-h culture); 40% in the test on HeLa cells [9] (HeLa, taxol 0.2 μM then 20 uM purvalanol A, 8 h after purvalanol A addition). Moreover, in the test on HeLa cells [4] (taxol 0.2 μM then Purvalanol A), the “effect of sequential addition to taxol-treated cells” value was “escape from the mitotic block, and massive apoptosis”. Further, the “kinetics of tumor growth” value in the test on MCF-7 tumors is listed as “did not affect the kinetics of tumor growth”. Besides, in test [8] (Purvalanol A alone or Purvalanol A followed by taxol), the survivin levels result is “did not affect survivin levels”. Further, the survivin expression entry in test [8] (taxol 0.2 μM 16 h then Purvalanol A 20 μM 16 h) is “inhibition of increased survivin expression after taxol treatment”; in test [8] (vincristine then Purvalanol A), “reversed the increase in survivin expression”. For the same compound, the “cell population with hypodiploid (apoptotic) DNA content / cell death” value in the test on HeLa cells [9] (HeLa, 16 h, taxol 0.2 μM, Purvalanol A 20 μM, alone or sequential) turned out to be 6%. The cell cycle arrest entry in the test with HeLa cells [9] (HeLa, taxol 0.2 μM or purvalanol A 1-20 uM alone (Examples 1, 2)) is “strong M arrest”. Besides, the “effect of purvalanol A on taxol-treated cells, concentration dependence” value in the test on HeLa cells [9] (purvalanol A 1, 10 and 20 uM added after taxol 0.2 μM) is “dose dependent”.
